Assay [1] has as its target T1, Gαq (Rattus norvegicus, UniProt P82471).
T1 sequence (P82471 1-359): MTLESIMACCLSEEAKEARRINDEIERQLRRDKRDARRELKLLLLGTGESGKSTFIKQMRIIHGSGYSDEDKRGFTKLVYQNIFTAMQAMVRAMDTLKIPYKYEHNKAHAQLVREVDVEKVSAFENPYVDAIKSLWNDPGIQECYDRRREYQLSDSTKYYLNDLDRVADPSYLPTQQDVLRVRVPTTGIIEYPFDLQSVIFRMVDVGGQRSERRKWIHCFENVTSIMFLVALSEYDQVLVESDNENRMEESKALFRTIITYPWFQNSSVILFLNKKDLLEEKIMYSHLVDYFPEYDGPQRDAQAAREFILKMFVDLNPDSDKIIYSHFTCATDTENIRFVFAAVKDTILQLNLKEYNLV
Briefly: […]GTPγS radioligand filter binding.

Assay [2] deals with T2, Gαq-Q209L (GαqΔ34-Q209L) (Mus musculus, UniProt P21279, Q209L).
T2 sequence (P21279 35-359 Q209L): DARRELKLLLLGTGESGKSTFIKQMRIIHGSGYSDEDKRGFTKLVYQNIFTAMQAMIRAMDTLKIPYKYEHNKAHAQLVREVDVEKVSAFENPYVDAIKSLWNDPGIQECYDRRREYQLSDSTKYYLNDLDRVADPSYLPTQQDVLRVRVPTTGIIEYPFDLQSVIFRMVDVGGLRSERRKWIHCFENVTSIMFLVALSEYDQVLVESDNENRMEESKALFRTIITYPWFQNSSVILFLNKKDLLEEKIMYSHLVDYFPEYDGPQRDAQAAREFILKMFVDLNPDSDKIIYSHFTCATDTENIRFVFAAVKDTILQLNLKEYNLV
As to the kind of experiment: […]GTPγS radioligand filter binding.

For assay [3], the target named is Gαq (Rattus norvegicus, UniProt P82471). As to the kind of experiment: […]GTPγS filter-binding assay with purified protein preincubated with FR. The format is biochemical.
Assay [4] addresses T2, Gαq-Q209L (GαqΔ34-Q209L). The assay is described as above. The format is biochemical.

*1 amine or outer side, *2 acyl side, *3 side chain or, on linkers, in order; H or OH if unused. Where a SMILES comes first, the peptide text is derived from it. Bridges are numbered along the chain shown (N, C = ends). [ ]: non-standard residue; d: D form. The star is where a group is joined. Leu(3R-OH,Nα-propionyl) = CCC(=O)N[C@H](C(=O)*)[C@H](O)C(C)C; X1 = CC(C)[C@@H](O[*:3])[C@H](N[*:1])C(=O)[*:2]; NMeT = CN[C@H](C(=O)O)[C@@H](C)O; dPhLac = O=C(O)[C@H](O)Cc1ccccc1; NMeA = CN[C@@H](C)C(=O)O; NMeDha = C=C(NC)C(=O)O

For the compound `Nc1nc2c(ncn2[C@@H]2O[C@H](COP(=O)(O)OP(=O)(O)OP(O)(O)=S)[C@@H](O)[C@H]2O)c(=O)[nH]1` [GTPγS], the “[35S]GTPγS radioligand filter binding” value was “GTPγS binding of purified Gαq and Gαq-Q209L was measured using a filter-binding method” at Gαq [1]; “GTPγS binding of purified Gαq and Gαq-Q209L was measured using a filter-binding method” at Gαq-Q209L (GαqΔ34-Q209L) [2].

For the compound `C=C1C(=O)N[C@@H](C)C(=O)N(C)[C@@H](C)C(=O)N[C@@H]([C@H](OC(=O)[C@@H](NC(=O)CC)[C@H](O)C(C)C)C(C)C)C(=O)N(C)[C@@H]([C@@H](C)OC)C(=O)O[C@H](C(C)C)[C@H](NC(C)=O)C(=O)O[C@H](Cc2ccccc2)C(=O)N1C` [FR, FR900359] (Ac-[X1][dPhLac][NMeDha]A[NMeA][X1](Leu(3R-OH,Nα-propionyl))[NMeT](Me); ester 1-C), the 50% inhibitory concentration (IC50) at Gαq [3] and on Gαq-Q209L (GαqΔ34-Q209L) [4] was roughly 75 nM in each case.

The record behind these values is article PMC6445713 (Molecular cancer research : MCR, 2018).
